We go through 21 compounds from patent publication US20090105278A1, “Selective inhibitors of human corticosteroid syntheses” (Universitat Des Saarlandes, priority 2004, published 2009).

Counter-ions that a name gives are not always drawn.

In one experiment the target is T1, human CYP17 (Homo sapiens, UniProt P05093).
T1 construct: made in house; host or cells: E. coli pJL17/OR (membrane fraction)
T1 sequence (P05093 1-508): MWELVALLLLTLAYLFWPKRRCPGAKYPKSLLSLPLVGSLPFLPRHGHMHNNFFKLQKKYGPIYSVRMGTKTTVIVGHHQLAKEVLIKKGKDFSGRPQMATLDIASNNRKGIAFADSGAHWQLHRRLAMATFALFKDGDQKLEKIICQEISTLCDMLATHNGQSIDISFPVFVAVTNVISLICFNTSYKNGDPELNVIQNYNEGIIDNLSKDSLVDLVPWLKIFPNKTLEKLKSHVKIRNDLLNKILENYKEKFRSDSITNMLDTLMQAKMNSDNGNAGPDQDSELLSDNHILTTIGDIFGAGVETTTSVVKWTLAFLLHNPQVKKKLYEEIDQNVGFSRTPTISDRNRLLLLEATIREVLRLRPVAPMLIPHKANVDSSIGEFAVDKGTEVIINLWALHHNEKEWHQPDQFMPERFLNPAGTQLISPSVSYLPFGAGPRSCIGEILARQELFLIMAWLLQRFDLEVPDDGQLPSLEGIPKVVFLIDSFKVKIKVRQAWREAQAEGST
Put plainly: Percent inhibition of CYP17 (membrane fraction of E. coli pJL17/OR). Format: biochemical. To be noted: E. coli which expresses human CYP17, 5 mg/ml protein, progesterone substrate 2.5 μM, inhibitor 2.5 μM; for inhibition at 2.5 µM: read-out: % Inhibition human CYP17. The method, then: The recombinantly altered E. coli strain pJL17/OR, in which human CYP17 and rat NADPH-P450-reductase were coexpressed, was grown and stored according to the method of Ehmer et al. (Ehmer, P. B. et al., J. Steroid Biochem. Mol. Biol. 75: 57-63 (2000)). For isolating the membrane fraction, 5 ml of the bacterial cell suspension with an OD578 of 50 was washed with phosphate buffer (0.05 M; pH 7.4; 1 mM MgCl2; 0.1 mM EDTA and 0.1 mM DTT). The bacteria were removed by centrifugation and resuspended in 10 ml of ice cold TES buffer (0.1 M tris-acetate; pH 7.8; 0.5 mM EDTA; 0.5 M sucrose). Four milligrams of lysozyme in 10 ml of ice cold water was added to obtain a final concentration of 0.2 mg/ml. This was followed by incubation for 30 minutes under continued shaking on ice. The spheroblasts were obtained by a renewed centrifugation step at 12,000 g for 10 min and again resuspended in 3 ml of ice cold phosphate buffer (composition see above, additionally 0.5 mM PMSF).
After freezing and thawing, the cells were lysed on ice with an ultrasonic disintegrator. The whole cells and the cell debris were centrifuged off at 3000 g for 7 min. The supernatant was again centrifuged at 50,000 g for 20 min at 4° C. A membrane pellet sedimented and was resuspended in 2 ml of phosphate buffer (composition see above) with […] by means of an Ultra-Turrax mixer. […] Aliquots with an approximate protein concentration of 5 mg/ml were stored at −70° C. until use.
Control incubations were performed in parallel with 5 μl DMSO without urea. The reaction was started by adding 50 μl of a membrane suspension diluted 1 to 5 in phosphate buffer (0.8 to 1 mg of protein per ml). After thoroughly mixing the components, the mixture was incubated at 37° C. for 30 min.
The steroids were extracted with 1 ml of EtOAc. […] After the centrifugation, 800 μl of the organic phase was removed, placed into a new vessel and evaporated to dryness. The samples were dissolved in 50 μl of a water-methanol mixture (1:1) and analyzed by HPLC. The substrate conversion was calculated from the ratio of the areas of the product peaks (17α-hydroxyprogesterone and 16α-hydroxyprogesterone) to that of the substrate peak. The activity of the inhibitors was calculated from the reduced substrate conversion after the addition of inhibitors in accordance with the following formula: […]

A further experiment addresses T2, human CYP11B2 (Homo sapiens, UniProt P19099).
T2 sequence (P19099 25-503): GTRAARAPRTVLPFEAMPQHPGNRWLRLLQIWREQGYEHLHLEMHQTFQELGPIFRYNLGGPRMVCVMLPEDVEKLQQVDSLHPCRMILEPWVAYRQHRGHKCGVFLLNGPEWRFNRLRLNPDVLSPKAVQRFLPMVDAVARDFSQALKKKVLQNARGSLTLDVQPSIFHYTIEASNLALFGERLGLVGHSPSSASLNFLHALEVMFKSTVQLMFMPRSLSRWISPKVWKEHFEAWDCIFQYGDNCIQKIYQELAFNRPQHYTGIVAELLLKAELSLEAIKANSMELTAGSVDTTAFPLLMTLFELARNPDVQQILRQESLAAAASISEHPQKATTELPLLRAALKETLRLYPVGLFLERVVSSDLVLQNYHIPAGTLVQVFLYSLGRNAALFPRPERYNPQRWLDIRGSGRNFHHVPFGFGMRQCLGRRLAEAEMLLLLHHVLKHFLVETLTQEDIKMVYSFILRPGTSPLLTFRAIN
Description: V79 MZh 11B2 cells inhibition test. To be noted: for IC50: hamster fibroblasts which express human CYP11B2, deoxycorticosterone substrate 100 nM, read-out: IC50 V79 11B2 hCYP11B2. Type of experiment: cell-based. More on the design: expressed in transfected cells; host or cells: V79 MZh11B2 (Chinese hamster lung fibroblasts). The method, then: Both cell lines were cultured in DMEM^+ containing […] and the antibiotics penicillin and streptomycin (10%) for protection from bacterial contamination. The cells were passaged every 2-3 days after treatment with trypsin/EDTA because the doubling rate was 1-2 days depending on the number of cells. […] When there was further need, freshly thawed cells were employed.
Thereafter, the plate was stored at 37° C. and […] in a CO2 incubator. The V79 MZh 11B1 cells were incubated for 120 min, and the V79 MZh 11B2 cells were incubated for 40 min. Controls without inhibitor were treated in the same way. The enzyme reactions were quenched by extracting the supernatant with 500 μl of EtOAc. The samples were centrifuged (10,000 g, 2 min), the solvent was removed and evaporated.
For V79 MZh11B2, the conversion rate was obtained in accordance with equation 3: […]
It was calculated by determining the percent inhibition for at least 3 different inhibitor concentrations, which must all be in the linear range of the sigmoidal IC50 curve (log C/% inhibition).
The calculation was effected by linear regression. The values determined were used only if they formed a straight line with a reliability of […].
The plate was developed twice with the mobile solvent chloroform:methanol:water (300:20:1). Unlabeled 11-deoxycorticosterone and corticosterone were applied as a reference for the CYP11B1 reaction. For the CYP11B2 reaction, 11-deoxycorticosterone, corticosterone, 18-hydroxycorticosterone and aldosterone were used as references. The detection of the unlabeled references was effected at 260 nm. Subsequently, imaging plates (BAS MS2340, for ^14C samples, Raytest, Straubenhardt, Germany) were exposed to the HPTLC plates for 48 h. The imaging plates were scanned with the phosphoimager system Fuji FLA 3000 (Raytest, Straubenhardt, Germany), and the steroids were quantified.

The term IC50 denotes the concentration that gives 50% inhibition. “5-[(E)-(6-Chloro-3,4-dihydronaphth-1(2H)-ylidene)methyl]-1H-imidazolium chloride [Compound 46a]”: on human CYP17, the “% Inhibition human CYP17” value was determined as 24%. For the same compound, at human CYP11B2, the IC50 is 47.3 nM.
Turning to “5-[(Z)-3,4-Dihydronaphth-1(2H)-ylidenemethyl]-1H-imidazolium oxalate [Compound 41b]”, the “% Inhibition human CYP17” value at human CYP17 is listed as 13%.
Turning to “5-[(Z)-(5-Bromo-2,3-dihydro-1H-indene-1-ylidene)methyl]-1H-imidazolium oxalate [Compound 49b]”, the “% Inhibition human CYP17” value on human CYP17 came to 15%. Besides, the IC50 on human CYP11B2 came out at 10.3 nM.
For “5-[(Z)-(5-Chloro-2,3-dihydro-1H-indene-1-ylidene)methyl]-1H-imidazolium oxalate [Compound 48b]”, at human CYP17, the “% Inhibition human CYP17” value amounted to 26%. Also, the “Selectivity factor IC50 (CYP11B1)/IC50 (CYP11B2)” value on human CYP11B2 (V79 cells expressing human CYP11B1 or CYP11B2) is “five times”.
As usually defined, the inhibition is the percentage by which the read-out fell short of the control. Take `C(=C1/CCc2ccccc21)/c1cccnc1` [Compound 1a, 3-[(E)-2,3-Dihydro-1H-indane-1-ylidenemethyl]pyridine Hydrochloride]: the inhibition at 2.5 µM at human CYP17 stood at 14%. The IC50 at human CYP11B2 came to 10.6 nM.
As to `C(=C1\CCc2ccccc21)/c1cccnc1.Cl` [Compound 1b, 3-[(Z)-2,3-Dihydro-1H-indane-1-ylidenemethyl]pyridine Hydrochloride], the “% Inhibition human CYP17” value at human CYP17 is listed as 33%. In addition, the IC50 on human CYP11B2 was 92 nM.
On to `C(=C1\CCc2ccccc21)/c1ccncc1` [Compound 2b, 4-[(Z)-2,3-Dihydro-1H-indane-1-ylidenemethyl]pyridine oxalate], for which, on human CYP17, the inhibition at 2.5 µM was 18%. In addition, the IC50 on human CYP11B2 is 931 nM.
`C(=C1/CCCc2ccccc21)/c1cccnc1.Cl` [Compound 3a, 3-[(E)-3,4-Dihydronaphthalene-1(2H)-ylidenemethyl]pyridine Hydrochloride]: the inhibition at 2.5 µM at human CYP17 was 9%. Further, the IC50 on human CYP11B2 came to 21.6 nM.
`C(=C1\CCCc2ccccc21)/c1cccnc1.Cl` [Compound 3b, 3-[(Z)-3,4-Dihydronaphthalene-1(2H)-ylidenemethyl]pyridine Hydrochloride]: on human CYP17, the inhibition at 2.5 µM turned out to be 24%. Moreover, the IC50 on human CYP11B2 stood at 141 nM.
Turning to `Fc1ccc2c(c1)CC/C2=C\c1cccnc1` [Compound 5a, 3-[(E)-(5-Fluoro-2,3-dihydro-1H-indane-1-ylidene)methyl]pyridine Hydrochloride], the inhibition at 2.5 µM on human CYP17 is 17%. The IC50 on human CYP11B2 amounted to 6.8 nM.
Taken in the same sequence, the figures for `Fc1ccc2c(c1)CC/C2=C/c1cccnc1` [Compound 5b, 3-[(Z)-(5-Fluoro-2,3-dihydro-1H-indane-1-ylidene)methyl]pyridine Hydrochloride] were 16% and 10.8 nM.
For the compound `Fc1ccc2c(c1)CC/C2=C\c1ccncc1` [Compound 6a, 4-[(E)-(5-Fluoro-2,3-dihydro-1H-indane-1-ylidene)methyl]pyridine Hydrochloride], the inhibition at 2.5 µM on human CYP17 was 15%. Also, the IC50 on human CYP11B2 came to 1100 nM.
As for `Fc1ccc2c(c1)CC/C2=C/c1ccncc1` [Compound 6b, 4-[(Z)-(5-Fluoro-2,3-dihydro-1H-indane-1-ylidene)methyl]pyridine Hydrochloride], the inhibition at 2.5 µM on human CYP17 was determined as 29%. The IC50 at human CYP11B2 stood at 34 nM.
Taken in the same sequence, the figures for `Clc1ccc2c(c1)CC/C2=C\c1cccnc1` [Compound 7a, 3-[(E)-(5-Chloro-2.3-dihydro-1H-indane-1-ylidene)methyl]pyridine Hydrochloride] were 26% and 26.2 nM.
Taken in the same sequence, the figures for `Clc1ccc2c(c1)CC/C2=C/c1cccnc1` [Compound 7b, 3-[(Z)-(5-Chloro-2,3-dihydro-1H-indane-1-ylidene)methyl]pyridine Hydrochloride] were 28% and 72.7 nM.
Take `Clc1ccc2c(c1)CC/C2=C\c1ccncc1` [Compound 8a, 4-[(E)-(5-Chloro-2,3-dihydro-1H-indane-1-ylidene)methyl]pyridine Hydrochloride]: on human CYP17, the inhibition at 2.5 µM was 18%. For the same compound, the IC50 on human CYP11B2 was found to be 1520 nM.
`Brc1ccc2c(c1)CC/C2=C\c1cccnc1` [Compound 9a, 3-[(E)-(5-Bromo-2,3-dihydro-1H-indane-1-ylidene)methyl]pyridine Hydrochloride]: the inhibition at 2.5 µM at human CYP17 worked out at 16%. Besides, at human CYP11B2, the IC50 worked out at 37.4 nM.
Taken in the same sequence, the figures for `Brc1ccc2c(c1)CC/C2=C/c1cccnc1` [Compound 9b, 3-[(Z)-(5-Bromo-2,3-dihydro-1H-indane-1-ylidene)methyl]pyridine Hydrochloride] were 24% and 171 nM.
`Brc1ccc2c(c1)CC/C2=C\c1ccncc1` [Compound 10a, 4-[(E)-(5-Bromo-2,3-dihydro-1H-indane-1-ylidene)methyl]pyridine Hydrochloride]: the inhibition at 2.5 µM on human CYP17 stood at 24%. The IC50 on human CYP11B2 came out at 2640 nM.
Turning to `C(=C1/CCCc2ccccc21)/c1cnc[nH]1` [Compound 41a, 5-[(E)-3,4-Dihydronaphth-1(2H)-ylidenemethyl]-1H-imidazole], the inhibition at 2.5 µM at human CYP17 amounted to 13%.
Take `Cl.Clc1ccc2c(c1)CC/C2=C\c1cnc[nH]1` [Compound 48a, 5-[(E)-(5-Chloro-2,3-dihydro-1H-indene-1-ylidene)methyl]-1H-imidazolium chloride]: on human CYP17, the inhibition at 2.5 µM turned out to be 37%.
